Key:
Type in all cases: in vivo
corn [1] = assay: Test Example 3: soil treatment, effect on crop; c: corn; conditions: treatment dosage 315 g/ha
Procedure, shortened: (§1)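 Crop and weed responses were judged three weeks after a uniform surface spray of the water-diluted emulsion at the given g/ha rate. Seeds sat beneath about 1.5 cm of sterilized diluvial soil, and boxes stood in a greenhouse at 25 to 30° C.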

barnyard grass [2] = assay: Test Example 2: weedkilling efficacy, growth period weed treatment in the submerged state; A: barnyard grass; conditions: treatment dosage 252 g/ha
Procedure, shortened: (§2)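 Barnyard grass, bulrush and oval-leafed pondweed sown in alluvial soil under 4 cm flooding, greenhouse 25 to 30° C. At 1-2 leaf stage, water-diluted emulsion applied to the water surface at stated g/ha dosages; effects scored 3 weeks later.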

soybean [3] = assay: Test Example 4: foliar treatment, effect on crop; d: soybean; conditions: treatment dosage 315 g/ha
Procedure, shortened: (§3)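 Seeds are spot-sown into sterilized diluvial soil and covered with about 1.5 cm of soil. After 14 days' greenhouse growth at 25 to 30° C, plants are sprayed on stems and leaves with diluted emulsion at the stated g/ha rate, then scored at 3 weeks.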

wheat [4] = assay: Test Example 3: soil treatment, effect on crop; e: wheat; conditions: treatment dosage 315 g/ha
Procedure, shortened: as §1

transplanted rice = assay: Test Example 1: preemergent weed treatment in the submerged state, effect on crop; a: transplanted rice; conditions: treatment dosage 252 g/ha
Procedure, shortened: (§4)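 Visual scores against set criteria were taken 3 weeks after treatment. Compounds, as diluted emulsions at specified g/ha, went onto the water surface of 4 cm-flooded alluvial soil pots on the day weeds were sown and 2.5-leaf rice was transplanted; greenhouse held 25–30 °C.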

redroot pigweed [5] = assay: Test Example 3: weedkilling efficacy through soil treatment; L: redroot pigweed; conditions: treatment dosage 315 g/ha
Procedure, shortened: as §1

crabgrass [6] = assay: Test Example 4: weedkilling efficacy by foliar treatment; D: crabgrass; conditions: treatment dosage 315 g/ha
Procedure, shortened: as §3

birds-eye speedwell [7] = assay: Test Example 3: weedkilling efficacy through soil treatment; p: birds-eye speedwell; conditions: treatment dosage 315 g/ha
Procedure, shortened: as §1

birds-eye speedwell [8] = assay: Test Example 4: weedkilling efficacy by foliar treatment; p: birds-eye speedwell; conditions: treatment dosage 315 g/ha
Procedure, shortened: as §3

Italian ryegrass [9] = assay: Test Example 4: weedkilling efficacy by foliar treatment; I: Italian ryegrass; conditions: treatment dosage 315 g/ha
Procedure, shortened: as §3

beet [10] = assay: Test Example 4: foliar treatment, effect on crop; f: beet; conditions: treatment dosage 315 g/ha
Procedure, shortened: as §3

directly sown rice [11] = assay: Test Example 4: foliar treatment, effect on crop; b: directly sown rice; conditions: treatment dosage 315 g/ha
Procedure, shortened: as §3

green foxtail [12] = assay: Test Example 4: weedkilling efficacy by foliar treatment; E: green foxtail; conditions: treatment dosage 315 g/ha
Procedure, shortened: as §3

wheat [13] = assay: Test Example 4: foliar treatment, effect on crop; e: wheat; conditions: treatment dosage 315 g/ha
Procedure, shortened: as §3

green foxtail [14] = assay: Test Example 3: weedkilling efficacy through soil treatment; E: green foxtail; conditions: treatment dosage 315 g/ha
Procedure, shortened: as §1

bulrush [15] = assay: Test Example 1: weedkilling efficacy, preemergent weed treatment in the submerged state; B: bulrush; conditions: treatment dosage 252 g/ha
Procedure, shortened: as §4

beet [16] = assay: Test Example 3: soil treatment, effect on crop; f: beet; conditions: treatment dosage 315 g/ha
Procedure, shortened: as §1

oval-leafed pondweed [17] = assay: Test Example 1: weedkilling efficacy, preemergent weed treatment in the submerged state; C: oval-leafed pondweed; conditions: treatment dosage 252 g/ha
Procedure, shortened: as §4

chickweed [18] = assay: Test Example 4: weedkilling efficacy by foliar treatment; N: chickweed; conditions: treatment dosage 315 g/ha
Procedure, shortened: as §3

Indian mallow [19] = assay: Test Example 3: weedkilling efficacy through soil treatment; K: Indian mallow; conditions: treatment dosage 315 g/ha
Procedure, shortened: as §1

barnyard grass [20] = assay: Test Example 1: weedkilling efficacy, preemergent weed treatment in the submerged state; A: barnyard grass; conditions: treatment dosage 252 g/ha
Procedure, shortened: as §4

Italian ryegrass [21] = assay: Test Example 3: weedkilling efficacy through soil treatment; I: Italian ryegrass; conditions: treatment dosage 315 g/ha
Procedure, shortened: as §1

directly sown rice [22] = assay: Test Example 3: soil treatment, effect on crop; b: directly sown rice; conditions: treatment dosage 315 g/ha
Procedure, shortened: as §1

bulrush [23] = assay: Test Example 2: weedkilling efficacy, growth period weed treatment in the submerged state; B: bulrush; conditions: treatment dosage 252 g/ha
Procedure, shortened: as §2

black-grass [24] = assay: Test Example 3: weedkilling efficacy through soil treatment; H: black-grass; conditions: treatment dosage 315 g/ha
Procedure, shortened: as §1

oval-leafed pondweed [25] = assay: Test Example 2: weedkilling efficacy, growth period weed treatment in the submerged state; C: oval-leafed pondweed; conditions: treatment dosage 252 g/ha
Procedure, shortened: as §2

fig-leafed goosefoot [26] = assay: Test Example 4: weedkilling efficacy by foliar treatment; M: fig-leafed goosefoot; conditions: treatment dosage 315 g/ha
Procedure, shortened: as §3

black-grass [27] = assay: Test Example 4: weedkilling efficacy by foliar treatment; H: black-grass; conditions: treatment dosage 315 g/ha
Procedure, shortened: as §3

Indian mallow [28] = assay: Test Example 4: weedkilling efficacy by foliar treatment; K: Indian mallow; conditions: treatment dosage 315 g/ha
Procedure, shortened: as §3

corn [29] = assay: Test Example 4: foliar treatment, effect on crop; c: corn; conditions: treatment dosage 315 g/ha
Procedure, shortened: as §3

chickweed [30] = assay: Test Example 3: weedkilling efficacy through soil treatment; N: chickweed; conditions: treatment dosage 315 g/ha
Procedure, shortened: as §1

catchweed = assay: Test Example 4: weedkilling efficacy by foliar treatment; O: catchweed; conditions: treatment dosage 315 g/ha
Procedure, shortened: as §3

fig-leafed goosefoot [31] = assay: Test Example 3: weedkilling efficacy through soil treatment; M: fig-leafed goosefoot; conditions: treatment dosage 315 g/ha
Procedure, shortened: as §1

crabgrass [32] = assay: Test Example 3: weedkilling efficacy through soil treatment; D: crabgrass; conditions: treatment dosage 315 g/ha
Procedure, shortened: as §1

soybean [33] = assay: Test Example 3: soil treatment, effect on crop; d: soybean; conditions: treatment dosage 315 g/ha
Procedure, shortened: as §1

redroot pigweed [34] = assay: Test Example 4: weedkilling efficacy by foliar treatment; L: redroot pigweed; conditions: treatment dosage 315 g/ha
Procedure, shortened: as §3

Row | SMILES | c (corn) effect on crop grade (corn [1]) | A (barnyard grass) weedkilling efficacy grade (barnyard grass [2]) | d (soybean) effect on crop grade (soybean [3]) | e (wheat) effect on crop grade (wheat [4]) | a (transplanted rice) effect on crop grade (transplanted rice) | L (redroot pigweed) weedkilling efficacy grade (redroot pigweed [5]) | D (crabgrass) weedkilling efficacy grade (crabgrass [6]) | P (birds-eye speedwell) weedkilling efficacy grade (birds-eye speedwell [7]) | P (birds-eye speedwell) weedkilling efficacy grade (birds-eye speedwell [8]) | I (Italian ryegrass) weedkilling efficacy grade (Italian ryegrass [9]) | f (beet) effect on crop grade (beet [10]) | b (directly sown rice) effect on crop grade (directly sown rice [11]) | E (green foxtail) weedkilling efficacy grade (green foxtail [12]) | e (wheat) effect on crop grade (wheat [13]) | E (green foxtail) weedkilling efficacy grade (green foxtail [14]) | B (bulrush) weedkilling efficacy grade (bulrush [15]) | f (beet) effect on crop grade (beet [16]) | C (oval-leafed pondweed) weedkilling efficacy grade (oval-leafed pondweed [17]) | N (chickweed) weedkilling efficacy grade (chickweed [18]) | K (Indian mallow) weedkilling efficacy grade (Indian mallow [19]) | also measured
1 | CC1=C(c2cccnc2F)C(=O)N(C(C)(C)C(=O)Nc2cccc(Cl)n2)CO1 [B-2-08] | 0 (weed kill ratio 5% or less (practically no effect)) | 5 (weed kill ratio 90% or more, (practically complete withering)) | 4 (weed kill ratio 70% or more, less than 90%) | 3 (weed kill ratio 40% or more, less than 70%) | 0 (weed kill ratio 5% or less (practically no effect)) | 4 (weed kill ratio 70% or more, less than 90%) | 5 (weed kill ratio 90% or more, (practically complete withering)) | 4 (weed kill ratio 70% or more, less than 90%) | 4 (weed kill ratio 70% or more, less than 90%) | 5 (weed kill ratio 90% or more, (practically complete withering)) | 5 (weed kill ratio 90% or more, (practically complete withering)) | 4 (weed kill ratio 70% or more, less than 90%) | 5 (weed kill ratio 90% or more, (practically complete withering)) | 2 (weed kill ratio 20% or more, less than 40%) | 5 (weed kill ratio 90% or more, (practically complete withering)) | 5 (weed kill ratio 90% or more, (practically complete withering)) | 1 (weed kill ratio 5% or more, less than 20%) | 5 (weed kill ratio 90% or more, (practically complete withering)) | 4 (weed kill ratio 70% or more, less than 90%) | 4 (weed kill ratio 70% or more, less than 90%) | A (barnyard grass) weedkilling efficacy grade (barnyard grass [20]): 5 (weed kill ratio 90% or more, (practically complete withering)); I (Italian ryegrass) weedkilling efficacy grade (Italian ryegrass [21]): 5 (weed kill ratio 90% or more, (practically complete withering)); b (directly sown rice) effect on crop grade (directly sown rice [22]): 5 (weed kill ratio 90% or more, (practically complete withering)); B (bulrush) weedkilling efficacy grade (bulrush [23]): 5 (weed kill ratio 90% or more, (practically complete withering)); H (black-grass) weedkilling efficacy grade (black-grass [24]): 5 (weed kill ratio 90% or more, (practically complete withering)); C (oval-leafed pondweed) weedkilling efficacy grade (oval-leafed pondweed [25]): 5 (weed kill ratio 90% or more, (practically complete withering)); M (fig-leafed goosefoot) weedkilling efficacy grade (fig-leafed goosefoot [26]): 4 (weed kill ratio 70% or more, less than 90%); H (black-grass) weedkilling efficacy grade (black-grass [27]): 5 (weed kill ratio 90% or more, (practically complete withering)); K (Indian mallow) weedkilling efficacy grade (Indian mallow [28]): 4 (weed kill ratio 70% or more, less than 90%); c (corn) effect on crop grade (corn [29]): 0 (weed kill ratio 5% or less (practically no effect)); N (chickweed) weedkilling efficacy grade (chickweed [30]): 3 (weed kill ratio 40% or more, less than 70%); O (catchweed) weedkilling efficacy grade (catchweed): 3 (weed kill ratio 40% or more, less than 70%); M (fig-leafed goosefoot) weedkilling efficacy grade (fig-leafed goosefoot [31]): 4 (weed kill ratio 70% or more, less than 90%); D (crabgrass) weedkilling efficacy grade (crabgrass [32]): 5 (weed kill ratio 90% or more, (practically complete withering)); d (soybean) effect on crop grade (soybean [33]): 0 (weed kill ratio 5% or less (practically no effect)); L (redroot pigweed) weedkilling efficacy grade (redroot pigweed [34]): 4 (weed kill ratio 70% or more, less than 90%)
2 | CC1=C(c2ccccc2)C(=O)N(C(C)(C)C(=O)Nc2cccc(Cl)n2)CO1 [B-2-29] | 0 (weed kill ratio 5% or less (practically no effect)) | 5 (weed kill ratio 90% or more, (practically complete withering)) | 5 (weed kill ratio 90% or more, (practically complete withering)) | 5 (weed kill ratio 90% or more, (practically complete withering)) | 0 (weed kill ratio 5% or less (practically no effect)) | 4 (weed kill ratio 70% or more, less than 90%) | 5 (weed kill ratio 90% or more, (practically complete withering)) | 5 (weed kill ratio 90% or more, (practically complete withering)) | 4 (weed kill ratio 70% or more, less than 90%) | 5 (weed kill ratio 90% or more, (practically complete withering)) | 4 (weed kill ratio 70% or more, less than 90%) | 5 (weed kill ratio 90% or more, (practically complete withering)) | 5 (weed kill ratio 90% or more, (practically complete withering)) | 5 (weed kill ratio 90% or more, (practically complete withering)) | 5 (weed kill ratio 90% or more, (practically complete withering)) | 5 (weed kill ratio 90% or more, (practically complete withering)) | 5 (weed kill ratio 90% or more, (practically complete withering)) | 5 (weed kill ratio 90% or more, (practically complete withering)) | 5 (weed kill ratio 90% or more, (practically complete withering)) | 4 (weed kill ratio 70% or more, less than 90%) | A (barnyard grass) weedkilling efficacy grade (barnyard grass [20]): 5 (weed kill ratio 90% or more, (practically complete withering)); I (Italian ryegrass) weedkilling efficacy grade (Italian ryegrass [21]): 5 (weed kill ratio 90% or more, (practically complete withering)); b (directly sown rice) effect on crop grade (directly sown rice [22]): 5 (weed kill ratio 90% or more, (practically complete withering)); B (bulrush) weedkilling efficacy grade (bulrush [23]): 5 (weed kill ratio 90% or more, (practically complete withering)); H (black-grass) weedkilling efficacy grade (black-grass [24]): 5 (weed kill ratio 90% or more, (practically complete withering)); C (oval-leafed pondweed) weedkilling efficacy grade (oval-leafed pondweed [25]): 5 (weed kill ratio 90% or more, (practically complete withering)); M (fig-leafed goosefoot) weedkilling efficacy grade (fig-leafed goosefoot [26]): 4 (weed kill ratio 70% or more, less than 90%); H (black-grass) weedkilling efficacy grade (black-grass [27]): 5 (weed kill ratio 90% or more, (practically complete withering)); K (Indian mallow) weedkilling efficacy grade (Indian mallow [28]): 5 (weed kill ratio 90% or more, (practically complete withering)); c (corn) effect on crop grade (corn [29]): 4 (weed kill ratio 70% or more, less than 90%); N (chickweed) weedkilling efficacy grade (chickweed [30]): 5 (weed kill ratio 90% or more, (practically complete withering)); O (catchweed) weedkilling efficacy grade (catchweed): 4 (weed kill ratio 70% or more, less than 90%); M (fig-leafed goosefoot) weedkilling efficacy grade (fig-leafed goosefoot [31]): 5 (weed kill ratio 90% or more, (practically complete withering)); D (crabgrass) weedkilling efficacy grade (crabgrass [32]): 5 (weed kill ratio 90% or more, (practically complete withering)); d (soybean) effect on crop grade (soybean [33]): 3 (weed kill ratio 40% or more, less than 70%); L (redroot pigweed) weedkilling efficacy grade (redroot pigweed [34]): 5 (weed kill ratio 90% or more, (practically complete withering))

Reference: US9738634B2, “Heterocyclic amide compound and herbicide” (SYNGENTA PARTICIPATIONS AG, priority 2013, dated 2017)
